{
  "source": "paper PMC11882969",
  "about": "(Nature Communications, 2025)",
  "type_in_all_cases": "cell-based",
  "key": {"[1]": {"molecular_target": "panel of 320 non-olfactory GPCRs (Homo sapiens, UniProt P41231)"}, "[2]": {"molecular_target": "panel of 320 non-olfactory GPCRs (Homo sapiens, UniProt Q8IZP9)", "sequence (Q8IZP9 38-1017)": "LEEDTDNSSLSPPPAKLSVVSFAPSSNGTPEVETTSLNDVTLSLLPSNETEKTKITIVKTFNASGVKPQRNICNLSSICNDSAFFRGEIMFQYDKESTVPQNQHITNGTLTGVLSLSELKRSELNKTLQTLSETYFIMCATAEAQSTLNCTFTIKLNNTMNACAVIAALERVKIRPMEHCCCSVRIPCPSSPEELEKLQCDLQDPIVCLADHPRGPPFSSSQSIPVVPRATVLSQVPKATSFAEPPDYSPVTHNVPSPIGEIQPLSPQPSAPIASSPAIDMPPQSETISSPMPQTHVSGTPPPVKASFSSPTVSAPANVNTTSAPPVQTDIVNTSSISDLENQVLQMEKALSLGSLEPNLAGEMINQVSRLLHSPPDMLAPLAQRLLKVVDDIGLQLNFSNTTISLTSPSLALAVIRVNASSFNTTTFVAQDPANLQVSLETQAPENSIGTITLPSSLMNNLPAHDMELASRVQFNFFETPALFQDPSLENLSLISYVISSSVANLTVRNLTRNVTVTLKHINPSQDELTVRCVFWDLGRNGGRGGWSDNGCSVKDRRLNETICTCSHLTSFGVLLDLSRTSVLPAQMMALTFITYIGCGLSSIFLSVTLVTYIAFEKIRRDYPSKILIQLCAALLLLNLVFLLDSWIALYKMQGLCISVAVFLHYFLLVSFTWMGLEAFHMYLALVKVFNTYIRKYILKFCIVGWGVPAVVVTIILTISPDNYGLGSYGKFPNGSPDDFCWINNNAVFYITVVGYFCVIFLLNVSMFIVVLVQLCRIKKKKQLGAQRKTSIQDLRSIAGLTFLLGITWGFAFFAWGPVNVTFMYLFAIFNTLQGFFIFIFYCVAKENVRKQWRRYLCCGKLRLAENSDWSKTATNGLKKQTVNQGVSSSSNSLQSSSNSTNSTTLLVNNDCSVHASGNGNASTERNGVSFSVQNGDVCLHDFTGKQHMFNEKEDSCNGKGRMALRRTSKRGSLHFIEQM"}, "[3]": {"molecular_target": "panel of 320 non-olfactory GPCRs (Homo sapiens, UniProt P32745)"}, "[4]": {"molecular_target": "panel of 320 non-olfactory GPCRs (Homo sapiens, UniProt P28221)", "sequence (P28221 whole entry)": "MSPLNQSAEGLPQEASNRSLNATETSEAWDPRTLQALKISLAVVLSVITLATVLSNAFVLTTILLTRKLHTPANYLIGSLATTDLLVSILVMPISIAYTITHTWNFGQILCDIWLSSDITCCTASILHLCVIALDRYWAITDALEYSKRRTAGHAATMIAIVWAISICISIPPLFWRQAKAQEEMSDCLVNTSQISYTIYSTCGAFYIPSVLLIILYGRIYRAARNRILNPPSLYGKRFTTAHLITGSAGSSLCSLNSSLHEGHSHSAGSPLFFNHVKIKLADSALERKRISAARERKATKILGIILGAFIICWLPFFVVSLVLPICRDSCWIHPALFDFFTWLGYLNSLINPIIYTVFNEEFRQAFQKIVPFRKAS"}, "[5]": {"molecular_target": "panel of 320 non-olfactory GPCRs (Homo sapiens, UniProt Q86Y34)"}, "[6]": {"molecular_target": "panel of 320 non-olfactory GPCRs (Homo sapiens, UniProt P46095)"}, "[7]": {"molecular_target": "panel of 320 non-olfactory GPCRs (Homo sapiens, UniProt P23945)"}, "[8]": {"molecular_target": "panel of 320 non-olfactory GPCRs (Homo sapiens, UniProt Q8IZF2)", "sequence (Q8IZF2 22-1346)": "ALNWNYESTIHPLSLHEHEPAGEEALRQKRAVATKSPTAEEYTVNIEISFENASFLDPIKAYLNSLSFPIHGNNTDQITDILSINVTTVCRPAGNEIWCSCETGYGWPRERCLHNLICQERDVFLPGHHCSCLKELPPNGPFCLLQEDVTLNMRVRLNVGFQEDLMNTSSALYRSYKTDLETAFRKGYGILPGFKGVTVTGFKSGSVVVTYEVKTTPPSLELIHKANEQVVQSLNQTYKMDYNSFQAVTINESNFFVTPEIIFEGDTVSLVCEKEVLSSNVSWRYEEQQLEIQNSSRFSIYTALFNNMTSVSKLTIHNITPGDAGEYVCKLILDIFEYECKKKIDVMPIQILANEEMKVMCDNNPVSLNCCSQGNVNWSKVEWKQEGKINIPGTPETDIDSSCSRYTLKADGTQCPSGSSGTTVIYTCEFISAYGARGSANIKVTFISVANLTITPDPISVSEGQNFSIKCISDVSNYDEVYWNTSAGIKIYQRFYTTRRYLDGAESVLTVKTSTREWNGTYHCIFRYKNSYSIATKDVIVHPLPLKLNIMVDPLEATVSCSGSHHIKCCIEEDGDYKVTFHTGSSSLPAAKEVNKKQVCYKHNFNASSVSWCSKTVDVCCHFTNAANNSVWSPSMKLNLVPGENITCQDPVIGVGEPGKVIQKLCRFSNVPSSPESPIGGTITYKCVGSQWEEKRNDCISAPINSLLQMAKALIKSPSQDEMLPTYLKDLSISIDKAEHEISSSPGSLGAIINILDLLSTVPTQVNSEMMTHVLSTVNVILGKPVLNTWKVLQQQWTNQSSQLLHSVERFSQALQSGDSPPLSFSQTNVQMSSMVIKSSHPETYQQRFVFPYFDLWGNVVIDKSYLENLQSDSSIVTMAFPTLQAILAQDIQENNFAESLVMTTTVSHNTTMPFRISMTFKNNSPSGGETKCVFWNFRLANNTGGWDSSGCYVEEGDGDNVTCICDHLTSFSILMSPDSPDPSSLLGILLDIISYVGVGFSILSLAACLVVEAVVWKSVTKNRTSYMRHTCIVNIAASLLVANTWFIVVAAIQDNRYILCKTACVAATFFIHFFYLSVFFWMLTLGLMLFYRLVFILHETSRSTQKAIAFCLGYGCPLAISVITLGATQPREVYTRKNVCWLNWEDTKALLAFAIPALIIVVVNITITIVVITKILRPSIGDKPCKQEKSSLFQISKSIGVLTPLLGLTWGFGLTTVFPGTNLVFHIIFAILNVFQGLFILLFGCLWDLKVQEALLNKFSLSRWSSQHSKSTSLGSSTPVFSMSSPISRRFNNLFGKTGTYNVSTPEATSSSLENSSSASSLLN"}, "[9]": {"molecular_target": "panel of 320 non-olfactory GPCRs (Homo sapiens, UniProt Q8IZF3)"}, "[10]": {"molecular_target": "panel of 320 non-olfactory GPCRs (Homo sapiens, UniProt Q8N6U8)", "sequence (Q8N6U8 whole entry)": "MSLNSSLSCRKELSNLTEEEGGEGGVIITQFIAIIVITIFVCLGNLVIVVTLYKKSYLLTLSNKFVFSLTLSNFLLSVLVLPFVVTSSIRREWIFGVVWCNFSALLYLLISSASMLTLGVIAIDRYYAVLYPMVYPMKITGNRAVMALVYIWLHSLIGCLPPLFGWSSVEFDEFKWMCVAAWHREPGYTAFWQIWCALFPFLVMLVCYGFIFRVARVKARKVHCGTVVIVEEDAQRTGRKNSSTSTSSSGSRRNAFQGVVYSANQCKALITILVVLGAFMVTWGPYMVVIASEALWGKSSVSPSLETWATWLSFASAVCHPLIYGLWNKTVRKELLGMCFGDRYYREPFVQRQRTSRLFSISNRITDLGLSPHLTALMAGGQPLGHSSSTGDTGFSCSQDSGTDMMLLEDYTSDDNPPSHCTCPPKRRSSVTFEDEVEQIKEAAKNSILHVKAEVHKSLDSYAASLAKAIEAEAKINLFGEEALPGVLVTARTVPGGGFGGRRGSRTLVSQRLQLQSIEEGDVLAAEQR"}, "[11]": {"molecular_target": "panel of 320 non-olfactory GPCRs (Homo sapiens, UniProt Q14439)"}, "[12]": {"molecular_target": "panel of 320 non-olfactory GPCRs (Homo sapiens, UniProt P08912)"}, "[13]": {"molecular_target": "panel of 320 non-olfactory GPCRs (Homo sapiens, UniProt P43220)"}, "[14]": {"molecular_target": "panel of 320 non-olfactory GPCRs (Homo sapiens, UniProt P47898)"}, "[15]": {"molecular_target": "panel of 320 non-olfactory GPCRs (Homo sapiens, UniProt Q16538)"}, "[16]": {"molecular_target": "panel of 320 non-olfactory GPCRs (Homo sapiens, UniProt P28335)"}, "[17]": {"molecular_target": "panel of 320 non-olfactory GPCRs (Homo sapiens, UniProt Q96RI0)", "sequence (Q96RI0 18-385)": "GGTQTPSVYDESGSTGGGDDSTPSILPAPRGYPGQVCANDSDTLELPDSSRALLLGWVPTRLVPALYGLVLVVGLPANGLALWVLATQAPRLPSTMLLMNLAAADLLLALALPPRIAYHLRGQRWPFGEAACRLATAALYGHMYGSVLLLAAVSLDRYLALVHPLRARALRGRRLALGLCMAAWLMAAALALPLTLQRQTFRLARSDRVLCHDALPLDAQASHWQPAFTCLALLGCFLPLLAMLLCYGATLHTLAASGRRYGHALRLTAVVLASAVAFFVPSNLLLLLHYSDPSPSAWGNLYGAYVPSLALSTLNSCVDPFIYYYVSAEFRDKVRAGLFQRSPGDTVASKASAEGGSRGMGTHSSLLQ"}, "[18]": {"molecular_target": "panel of 320 non-olfactory GPCRs (Homo sapiens, UniProt Q8TDT2)"}, "[19]": {"molecular_target": "panel of 320 non-olfactory GPCRs (Homo sapiens, UniProt Q96P66)"}, "[20]": {"molecular_target": "panel of 320 non-olfactory GPCRs (Homo sapiens, UniProt P47901)"}, "[21]": {"molecular_target": "panel of 320 non-olfactory GPCRs (Homo sapiens, UniProt Q9NZD1)"}, "[22]": {"molecular_target": "panel of 320 non-olfactory GPCRs (Homo sapiens, UniProt P30518)"}, "[23]": {"molecular_target": "panel of 320 non-olfactory GPCRs (Homo sapiens, UniProt P29275)"}, "[24]": {"molecular_target": "panel of 320 non-olfactory GPCRs (Homo sapiens, UniProt P48039)"}, "[25]": {"molecular_target": "panel of 320 non-olfactory GPCRs (Homo sapiens, UniProt Q9HBW9)", "sequence (Q9HBW9 20-690)": "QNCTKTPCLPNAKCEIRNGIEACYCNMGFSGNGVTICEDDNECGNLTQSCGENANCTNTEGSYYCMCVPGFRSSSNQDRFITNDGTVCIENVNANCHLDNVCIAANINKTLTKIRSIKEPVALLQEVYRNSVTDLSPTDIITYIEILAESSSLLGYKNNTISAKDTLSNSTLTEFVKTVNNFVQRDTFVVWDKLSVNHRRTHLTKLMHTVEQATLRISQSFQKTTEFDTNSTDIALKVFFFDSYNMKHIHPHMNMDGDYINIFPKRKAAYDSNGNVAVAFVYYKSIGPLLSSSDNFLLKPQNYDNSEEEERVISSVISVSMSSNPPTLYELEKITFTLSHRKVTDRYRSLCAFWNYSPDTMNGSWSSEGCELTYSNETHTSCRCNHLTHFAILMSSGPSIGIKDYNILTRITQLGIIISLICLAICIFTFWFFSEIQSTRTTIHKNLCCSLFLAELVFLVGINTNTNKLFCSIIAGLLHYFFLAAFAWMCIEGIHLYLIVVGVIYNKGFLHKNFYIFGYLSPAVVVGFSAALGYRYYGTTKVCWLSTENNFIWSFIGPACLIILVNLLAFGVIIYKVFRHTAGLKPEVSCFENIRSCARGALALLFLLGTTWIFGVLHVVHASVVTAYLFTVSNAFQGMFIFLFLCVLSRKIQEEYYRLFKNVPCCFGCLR"}, "[26]": {"molecular_target": "panel of 320 non-olfactory GPCRs (Homo sapiens, UniProt O43194)"}, "[27]": {"molecular_target": "panel of 320 non-olfactory GPCRs (Homo sapiens, UniProt P35346)"}, "[28]": {"molecular_target": "panel of 320 non-olfactory GPCRs (Homo sapiens, UniProt P46663)", "sequence (P46663 whole entry)": "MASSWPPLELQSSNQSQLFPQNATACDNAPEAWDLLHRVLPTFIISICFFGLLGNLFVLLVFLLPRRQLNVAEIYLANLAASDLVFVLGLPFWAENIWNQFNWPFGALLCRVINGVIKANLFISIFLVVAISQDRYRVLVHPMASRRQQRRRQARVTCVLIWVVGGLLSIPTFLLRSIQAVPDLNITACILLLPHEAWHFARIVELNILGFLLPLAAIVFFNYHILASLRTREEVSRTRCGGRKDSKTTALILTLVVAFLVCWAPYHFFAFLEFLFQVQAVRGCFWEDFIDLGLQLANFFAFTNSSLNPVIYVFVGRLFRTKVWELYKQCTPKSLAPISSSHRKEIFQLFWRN"}, "[29]": {"molecular_target": "panel of 320 non-olfactory GPCRs (Homo sapiens, UniProt Q9HBW0)"}, "[30]": {"molecular_target": "panel of 320 non-olfactory GPCRs (Homo sapiens, UniProt P25025)", "sequence (P25025 whole entry)": "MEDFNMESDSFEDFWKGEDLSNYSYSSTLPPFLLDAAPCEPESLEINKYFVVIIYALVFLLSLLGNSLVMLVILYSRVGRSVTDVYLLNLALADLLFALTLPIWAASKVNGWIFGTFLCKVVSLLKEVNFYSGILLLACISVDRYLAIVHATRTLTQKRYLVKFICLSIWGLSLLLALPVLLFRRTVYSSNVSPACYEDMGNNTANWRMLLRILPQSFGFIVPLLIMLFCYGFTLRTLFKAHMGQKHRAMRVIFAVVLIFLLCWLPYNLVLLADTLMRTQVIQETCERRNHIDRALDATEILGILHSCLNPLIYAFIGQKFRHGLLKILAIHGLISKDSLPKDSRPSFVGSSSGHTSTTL"}, "[31]": {"molecular_target": "panel of 320 non-olfactory GPCRs (Homo sapiens, UniProt Q9BPV8)"}, "[32]": {"molecular_target": "panel of 320 non-olfactory GPCRs (Homo sapiens, UniProt P51685)"}},
  "note": "“And” between values parts separate entries of the source, which are not always exact repeats. Equal entries are not always repeated.",
  "data": [
    {"smiles": "Cc1cc(C(=O)NC(C)(c2ccco2)c2ccco2)nn1-c1cccc(C(F)(F)F)c1", "note": "[‘4936]", "values": [
      {"measurement": "Fold of Basal RLU", "setting": "[1]", "value": "0.9 fold and 1.2 fold and 1 fold and 1.1 fold"},
      {"measurement": "Fold of Basal RLU", "setting": "[2]", "value": "0.8 fold and 0.6 fold and 1 fold"},
      {"measurement": "Fold of Basal RLU", "setting": "[3]", "value": "1.3 and 0.7 and 1"},
      {"measurement": "Fold of Basal RLU", "setting": "[4]", "value": "1.2 fold and 1.1 fold"},
      {"measurement": "Fold of Basal RLU", "setting": "[5]", "value": "2.2 and 2.3 and 1.6 and 3.1"},
      {"measurement": "Fold of Basal RLU", "setting": "[6]", "value": "1.3 fold and 1 fold and 1.2 fold and 1.1 fold"},
      {"measurement": "Fold of Basal RLU", "setting": "[7]", "value": "1 fold and 0.7 fold and 0.8 fold and 1.1 fold"},
      {"measurement": "Fold of Basal RLU", "setting": "[8]", "value": "2.1 fold and 2.4 fold and 1.6 fold and 2.5 fold"},
      {"measurement": "Fold of Basal RLU", "setting": "[9]", "value": "1 fold and 1.2 fold and 0.6 fold"},
      {"measurement": "Fold of Basal RLU", "setting": "[10]", "value": "1.1 fold and 1.2 fold"},
      {"measurement": "Fold of Basal RLU", "setting": "[11]", "value": "0.8 and 0.9 and 1"},
      {"measurement": "Fold of Basal RLU", "setting": "[12]", "value": "1 fold and 1.1 fold and 0.9 fold and 0.8 fold"},
      {"measurement": "Fold of Basal RLU", "setting": "[13]", "value": "0.9 and 0.7"},
      {"measurement": "Fold of Basal RLU", "setting": "[14]", "value": "2.1 fold and 2.3 fold"},
      {"measurement": "Fold of Basal RLU", "setting": "[15]", "value": "0.9 and 1.2 and 1.1 and 1.7"},
      {"measurement": "Fold of Basal RLU", "setting": "[16]", "value": "1.5 fold and 1.3 fold and 1.1 fold"},
      {"measurement": "Fold of Basal RLU", "setting": "[17]", "value": "1.2 and 1 and 0.8 and 0.9"},
      {"measurement": "Fold of Basal RLU", "setting": "[18]", "value": "1.1 fold and 0.9 fold and 1 fold"},
      {"measurement": "Fold of Basal RLU", "setting": "[19]", "value": "1.2 fold and 1.3 fold"},
      {"measurement": "Fold of Basal RLU", "setting": "[20]", "value": "0.6 and 0.4 and 0.5"},
      {"measurement": "Fold of Basal RLU", "setting": "[21]", "value": "0.8 and 0.6 and 0.9"},
      {"measurement": "Fold of Basal RLU", "setting": "[22]", "value": "0.9 fold and 1.3 fold and 1.6 fold"},
      {"measurement": "Fold of Basal RLU", "setting": "[23]", "value": "0.9 and 0.7 and 1 and 0.6"},
      {"measurement": "Fold of Basal RLU", "setting": "[24]", "value": "2.7 fold and 3.1 fold and 3.2 fold"},
      {"measurement": "Fold of Basal RLU", "setting": "[25]", "value": "1.6 fold and 1.5 fold and 1.1 fold"},
      {"measurement": "Fold of Basal RLU", "setting": "[26]", "value": "0.9 and 0.7 and 0.5"},
      {"measurement": "Fold of Basal RLU", "setting": "[27]", "value": "1 and 0.7 and 0.8"},
      {"measurement": "Fold of Basal RLU", "setting": "[28]", "value": "1.3 and 1.1 and 0.9 and 1.4"},
      {"measurement": "Fold of Basal RLU", "setting": "[29]", "value": "0.7 and 0.8 and 1 and 1.2"},
      {"measurement": "Fold of Basal RLU", "setting": "[30]", "value": "1.8 fold and 1.3 fold and 1.4 fold and 1.6 fold"},
      {"measurement": "Fold of Basal RLU", "setting": "[31]", "value": "1.3 fold and 1.5 fold and 1.7 fold and 1.8 fold"},
      {"measurement": "Fold of Basal RLU", "setting": "[32]", "value": "1.5 and 1.1 and 1.2 and 0.9"}
    ]},
    {"smiles": "COC(=O)[C@@](C)(NC(=O)c1cc(C)n(-c2cccc(C(F)(F)F)c2)n1)c1cccs1", "note": "[‘1350]", "values": [
      {"measurement": "Fold of Basal RLU", "setting": "[1]", "value": "1.3 fold and 1.4 fold and 1 fold"},
      {"measurement": "Fold of Basal RLU", "setting": "[2]", "value": "1.1 fold and 1.2 fold and 0.9 fold and 0.7 fold"},
      {"measurement": "Fold of Basal RLU", "setting": "[3]", "value": "0.8 and 0.9 and 0.7"},
      {"measurement": "Fold of Basal RLU", "setting": "[4]", "value": "1.1 fold and 0.9 fold and 1.2 fold"},
      {"measurement": "Fold of Basal RLU", "setting": "[5]", "value": "2.1 and 1.2 and 1.1"},
      {"measurement": "Fold of Basal RLU", "setting": "[6]", "value": "1.1 fold and 0.8 fold and 1 fold"},
      {"measurement": "Fold of Basal RLU", "setting": "[7]", "value": "1 fold and 1.2 fold and 0.7 fold and 0.8 fold"},
      {"measurement": "Fold of Basal RLU", "setting": "[8]", "value": "1.1 fold and 1.3 fold"},
      {"measurement": "Fold of Basal RLU", "setting": "[9]", "value": "1.1 fold and 0.9 fold"},
      {"measurement": "Fold of Basal RLU", "setting": "[10]", "value": "1.2 fold and 1.1 fold and 1 fold"},
      {"measurement": "Fold of Basal RLU", "setting": "[11]", "value": "0.7 and 0.8 and 1 and 0.9"},
      {"measurement": "Fold of Basal RLU", "setting": "[12]", "value": "0.9 fold and 1.4 fold and 1.1 fold and 1.7 fold"},
      {"measurement": "Fold of Basal RLU", "setting": "[13]", "value": "1.1 and 1 and 0.9 and 0.8"},
      {"measurement": "Fold of Basal RLU", "setting": "[14]", "value": "1.5 fold and 2.2 fold"},
      {"measurement": "Fold of Basal RLU", "setting": "[15]", "value": "0.8 and 1 and 0.6"},
      {"measurement": "Fold of Basal RLU", "setting": "[16]", "value": "1.6 fold and 1 fold and 1.3 fold and 1.2 fold"},
      {"measurement": "Fold of Basal RLU", "setting": "[17]", "value": "1.5 and 1.6 and 1"},
      {"measurement": "Fold of Basal RLU", "setting": "[18]", "value": "1.2 fold and 1.1 fold and 0.8 fold and 1.5 fold"},
      {"measurement": "Fold of Basal RLU", "setting": "[19]", "value": "1.1 fold and 0.8 fold and 0.9 fold"},
      {"measurement": "Fold of Basal RLU", "setting": "[20]", "value": "1.5 and 0.8 and 0.9 and 1.1"},
      {"measurement": "Fold of Basal RLU", "setting": "[21]", "value": "1.1 and 1 and 0.6 and 0.8"},
      {"measurement": "Fold of Basal RLU", "setting": "[22]", "value": "1.1 fold and 0.9 fold and 1.2 fold and 1.3 fold"},
      {"measurement": "Fold of Basal RLU", "setting": "[23]", "value": "0.6 and 0.7 and 1.1"},
      {"measurement": "Fold of Basal RLU", "setting": "[24]", "value": "2.2 fold and 2.3 fold and 2.4 fold"},
      {"measurement": "Fold of Basal RLU", "setting": "[25]", "value": "1.3 fold and 1.6 fold and 2.3 fold and 1.8 fold"},
      {"measurement": "Fold of Basal RLU", "setting": "[26]", "value": "0.7 and 0.8 and 1"},
      {"measurement": "Fold of Basal RLU", "setting": "[27]", "value": "0.4 and 0.7 and 0.6 and 0.5"},
      {"measurement": "Fold of Basal RLU", "setting": "[28]", "value": "1.6 and 1.3 and 1.1"},
      {"measurement": "Fold of Basal RLU", "setting": "[29]", "value": "0.7 and 0.8 and 1.1 and 0.6"},
      {"measurement": "Fold of Basal RLU", "setting": "[30]", "value": "0.8 fold and 1 fold and 1.1 fold"},
      {"measurement": "Fold of Basal RLU", "setting": "[31]", "value": "1 fold and 1.1 fold and 1.4 fold and 1.6 fold"},
      {"measurement": "Fold of Basal RLU", "setting": "[32]", "value": "1.6 and 1.3 and 1.1 and 1"}
    ]}
  ]
}
